Earlier results as cited in US6309839A, “Screening methods for compounds that inhibit or stimulate helicase enzyme activity” (Board of Trustees of the University of Arkansas, priority 2000, dated 2001).

Target: streptavidin (Streptomyces avidinii, UniProt P22629)
Details: no helicase present

streptavidin, sequence (P22629 25-183): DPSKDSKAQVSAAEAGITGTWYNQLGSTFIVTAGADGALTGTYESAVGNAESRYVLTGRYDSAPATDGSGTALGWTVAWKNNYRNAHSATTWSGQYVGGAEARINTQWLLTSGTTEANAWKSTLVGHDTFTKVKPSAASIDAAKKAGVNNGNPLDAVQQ

## O=C(O)CCCC[C@@H]1SC[C@@H]2NC(=O)N[C@@H]21 [biotin]
  spontaneous dissociation rate of streptavidin from biotin: 0.00033 min⁻¹
